# Data published in US11197863B2, “Inhibitors of polo-like kinase 4 (PLK4) for treating pediatric embryonal tumors” (ANN AND ROBERT H. LURIE CHILDREN'S HOSPITAL OF CHICAGO, priority 2017, dated 2021).
# Columns and labels:
# MUSK = MUSK (Homo sapiens, UniProt O15146); assay: Kinase activity screening (SelectScreen Kinase Profiling); type: biochemical; settings: 10-point titration
# Description: These assays utilized various formats appropriate to the kinase, its substrate and its activity. Formats included the Z-LYTE™ Kinase Assay that determines the differential sensitivity of phosphorylated and non-phosphorylated peptide substrates to proteolytic cleavage using a FRET-based readout, the Adapta™ Universal Kinase Assay that employs a homogeneous, fluorescence-based immunoassay for the detection of ADP produced by kinases and the LanthaScreen™ Eu Kinase Binding Assay that utilizes an Alexa Fluor™ conjugated “tracer” and an Eu-labeled anti-tag antibody to measure binding of a compound to the kinase target [62].
# [1] = system: CYP450 isoenzymes 1A2, 2B6, 2C8, 2C9, 2C19, 2D6, 2J2, 3A4 and 3A5 (except 3A4 BOMCC); assay: P450 profiling with Vivid substrates; type: in vitro ADME; settings: human, probe Vivid substrates; isoenzymes recommended for testing by FDA guidance except 3A4 BOMCC; 500 nM highest tested concentration
# [2] = system: MON, G401, BT-12, and BT-16 cells; assay: MTT cell proliferation assay, rhabdoid tumor cell lines; type: cell-based, human; settings: all cell lines evaluated; 10-500 nM, 48 and 72 hr
# Method: The expression of PLK4 (Hs00179514_m1) was verified by TaqMan GE assays (Thermo Fisher Scientific, USA) using the housekeeping gene GAPDH (Hs02758991_g1) as reference as previously described.[30] PLK4 inhibitor. […] Cell proliferation was evaluated by MTT assay and cell survival was evaluated by clonogenic assays using increasing concentrations of the drug in different time-points, as described below.
# (§1) To evaluate cell proliferation, we used TACS MTT Cell Proliferation Assays (Trevigen, USA). We plated 2×10^3 cells on each well of a 96-well plate and the absorbance was measured after 48 and 72 hr at concentrations of 10, 50, 100, 200, and 500 nM. Each experiment was performed in triplicates.
# DAOY and D283 cells [3] = assay: MTT proliferation assay, MB cell lines; type: cell-based, human; settings: 72 hours of treatment vs 0.1% DMSO
# Method: as §1
# (§2) For proliferation assay DAOY was plated with 5×10^4 cells per well and D283 was plated with 5×10^5 cells per well.
# DAOY and D283 cells [4] = assay: Colony formation assay, MB cell lines; type: cell-based, human; settings: 50 nM
# Method: For each cell line, 200 cells were seeded into six-well plates, incubated for 14 days, fixed with formalin, stained with Cresyl violet (ACROS Organics, USA), and the number of colonies counted using Image J software (www.imagej.nih.gov).
# as §2
# DAOY and D283 cells [5] = assay: Migration and invasion assays, MB cell lines; type: cell-based, human; settings: 100 nM, 24 hour vs 0.1% DMSO
# Method: Both migration and invasion were assessed using a 24-well Transwell chamber system (Corning, USA).[35] MON cells were plated at 20,000 per well for cell migration and at 50,000 per well coated with matrigel (200 μg/ml, 3 hr of solidification) for cell invasion. HFF-SCC058 cells were used as negative controls. […] All experiments were performed in triplicates.
# as §2
# zebrafish larvae = assay: In vivo toxicity assay in zebrafish larvae
# Method: Control larvae were exposed to 2% DMSO. Survival and delays in development and morphologic abnormalities were recorded at three time-points (24, 48, and 72 h of treatment). For each condition, groups of 20 larvae were analyzed in triplicates totalizing 420 subjects and 60 controls. Two-way ANOVA was used to analyze the results.
# [6] = system: HFF-SCC058 non-neoplastic human fibroblast cells; assay: Immunofluorescence for gamma-tubulin (centriole number); type: cell-based; settings: 100 and 500 nM
# Method: The cells were then blocked in blocking buffer (5% BSA (Jackson Immuno Research Laboratories Inc., USA) in PBST) for 1 hour at RT. The primary antibody ([…] 1:500, Sigma, USA) diluted in 1% BSA in PBST was then added and incubated at 4° C. overnight. Then, the cells were washed with 1×PBS thrice. Secondary antibody (Anti-Rabbit IgG (H+L) F (ab′) 2, 1:500, Sigma, USA) diluted in 1% BSA in PBST was added and incubated at RT for 2 hours. Three time washes with IX PBS were performed. Then, 1 mL of DAPI (Thermo Fisher Scientific, USA) in PBS (0.5 μl of DAPI in 10 ml PBS) was added to the cells and incubated for 10 min at RT. Finally, 3 time washes with 1×PBS were performed and slides were mounted using Mounting Medium (Thermo Fisher Scientific, USA).
# [7] = system: MON, G401, BT-12, BT-16 DAOY and D283 cells; assay: Senescence beta galactosidase assay; type: cell-based, human; settings: 100 nM, 48 hours; all cell lines
# Method: For each cell line, cells were seeded in 6-well plates in triplicates with 100,000 cells per well. Treatment medium was added the next day and incubated for 48 or 72 hrs. After incubation, cells were washed twice with 1×PBS and 1 mL of the Fixation Buffer from the kit was added to each well of the plate and incubated at RT for 5 min. Cells were washed with 1×PBS and 1 mL of staining solution from the kit was added to each well and incubated at 37° C. without CO2 overnight. The next day, the cells were washed with 1×PBS and the numbers of blue stained cells (which indicate senescent cells) and unstained cells were counted in image J (www.imagej.nih.gov). The percentage of senescent cells was calculated.
# RT and MB cell lines = assay: Cell cycle analysis by flow cytometry (polyploidy); type: cell-based, human; settings: multiple RT and MB cell lines
# Method: (§3) Cell cycle evaluation was performed by staining the cells with PI (Thermo Fisher Scientific, USA) according to manufacturer's instructions. […] Data was analyzed using Modfit LT from Verity Software House. Experiments were performed in triplicates.
# [8] = system: HFF-SCC058 human fibroblasts; assay: Cell cycle analysis by flow cytometry (polyploidy); type: cell-based
# Method: as §3
# [9] = system: BT-12 AT/RT intracranial xenografts; assay: Intracranial AT/RT xenograft tumors; type: in vivo, mice; settings: 7.5 mg/kg/day oral for 21 days
# Description: Six-week-old female athymic mice (rnu/rnu genotype, BALB/c background) were purchased from Envigo (Harlan) and housed under aseptic conditions, which included filtered air and sterilized food, water, bedding, and cages. The Northwestern University Institutional Animal Care and Use Committee approved all animal protocols. The BT-12 AT/RT cell line, which has high expression of PLK4 was modified to express luciferase and injected intracranially in nude mice as previously described. Each mouse was injected with a cell suspension (10,000 cells/3 μL) into the right caudate putamen of the brain. […] Bioluminescence monitoring was performed twice a week throughout the course of the experiment for quantitative measurement of tumor growth and response to therapy. Kaplan-Meier survival analysis was performed to assess survival benefit within the treatment group as compared to controls. Differences between survival curves were calculated using a log-rank test. Brains were resected at 6 hours following completion of the treatment and placed in 4% paraformaldthyde for subsequent histological examination.
# [10] = phase I, adults, preliminary results; cited from earlier work
# Aurora kinase B = Aurora kinase B (Homo sapiens, UniProt Q96GD4); settings: cited from earlier work
# Sequence of Aurora kinase B (Q96GD4 whole entry, species assumed): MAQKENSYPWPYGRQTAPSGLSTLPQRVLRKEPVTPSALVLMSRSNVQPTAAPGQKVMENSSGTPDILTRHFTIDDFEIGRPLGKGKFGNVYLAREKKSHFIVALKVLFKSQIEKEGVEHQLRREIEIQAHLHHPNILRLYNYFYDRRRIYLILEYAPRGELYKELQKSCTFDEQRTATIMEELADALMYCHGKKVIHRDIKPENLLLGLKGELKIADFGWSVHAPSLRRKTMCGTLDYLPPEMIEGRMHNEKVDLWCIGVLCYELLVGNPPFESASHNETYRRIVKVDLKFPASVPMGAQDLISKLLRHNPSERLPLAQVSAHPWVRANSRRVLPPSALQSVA
# Sequence of MUSK (O15146 24-869): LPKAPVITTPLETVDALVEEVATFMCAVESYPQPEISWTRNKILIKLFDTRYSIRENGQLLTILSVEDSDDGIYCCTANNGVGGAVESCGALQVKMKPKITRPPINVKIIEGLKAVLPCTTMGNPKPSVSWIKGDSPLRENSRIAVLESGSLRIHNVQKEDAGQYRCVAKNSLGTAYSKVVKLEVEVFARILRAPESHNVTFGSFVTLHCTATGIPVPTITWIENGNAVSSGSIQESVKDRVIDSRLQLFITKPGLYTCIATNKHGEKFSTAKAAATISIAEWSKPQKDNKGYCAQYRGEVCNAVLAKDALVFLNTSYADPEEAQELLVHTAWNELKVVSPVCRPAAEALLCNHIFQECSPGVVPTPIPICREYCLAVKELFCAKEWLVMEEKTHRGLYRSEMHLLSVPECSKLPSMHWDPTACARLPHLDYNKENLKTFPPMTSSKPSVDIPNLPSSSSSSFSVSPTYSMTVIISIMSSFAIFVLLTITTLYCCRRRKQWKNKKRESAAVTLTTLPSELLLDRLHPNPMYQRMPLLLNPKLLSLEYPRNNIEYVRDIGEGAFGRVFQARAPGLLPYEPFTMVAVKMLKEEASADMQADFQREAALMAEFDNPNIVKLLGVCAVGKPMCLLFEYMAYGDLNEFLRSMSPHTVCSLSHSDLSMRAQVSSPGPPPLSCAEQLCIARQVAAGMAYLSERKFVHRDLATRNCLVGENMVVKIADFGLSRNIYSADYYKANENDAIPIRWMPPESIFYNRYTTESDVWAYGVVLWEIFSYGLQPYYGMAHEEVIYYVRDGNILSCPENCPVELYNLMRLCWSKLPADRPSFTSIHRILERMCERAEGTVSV
smiles,measurement,setting,value
COc1ccc2c(c1)[C@]1(C[C@H]1c1ccc3c(/C=C/c4ccc(CN5C[C@@H](C)O[C@@H](C)C5)cc4)n[nH]c3c1)C(=O)N2 [CFI-400945],IC50,MUSK,48.7 nM
same,IC50,[1],> 500 nM
same,cell proliferation (MTT),[2],significant reduction of cell proliferation
same,cell proliferation (MTT),DAOY and D283 cells [3],significantly decreased proliferation
same,colony formation,DAOY and D283 cells [4],Complete inhibition of colony formation
same,cell migration and invasion,DAOY and D283 cells [5],significant decrease in cell migration and invasion
same,larvae deaths,"zebrafish larvae; 10 nM to 20 μM for 3 days, over 400 larvae",no increase in larvae deaths
same,morphologic abnormalities,zebrafish larvae; extremely high concentrations (10 and 20 μM),edema and body curvature were consistently observed
same,paradoxical effect on centriole number,[6],not observed
same,senescent cells,[7],significant increase of senescent cells
same,degree of polyploidy,RT and MB cell lines,> 8 N
same,polyploidy,[8],not affecting
same,growth of intracranial AT/RT tumors (bioluminescence),[9]; p=0.0146,significantly reduced the growth
same,survival,"[9]; p=0.0477, log-rank",extended the survival
same,tolerability,[10],well tolerated at doses up to 72 ma
same,activity against Aurora kinase B,Aurora kinase B,certain activity
